In patent publication US6737383B1, “Herbicidal oxadiazolidines” (priority 1999, dated 2004):

Tests used:
bedstraw = assay: Test B pre/postemergence bedstraw; type: in vivo, Galium aparine
Method in brief: (§1)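 Test chemicals in a non-phytotoxic solvent mixture with surfactant were sprayed preemergence onto planted seeds and postemergence onto plants 2 to 18 cm tall (1- to 4-leaf stage). After twelve to sixteen days in a greenhouse, injury was visually rated against untreated controls from 0 (no effect) to 10 (complete control).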

blackgrass = assay: Test B pre/postemergence blackgrass; type: in vivo, Alopecurus myosuroides
Method in brief: as §1

surinam grass = assay: Test B pre/postemergence surinam grass; type: in vivo, Brachiaria decumbens
Method in brief: as §1

cocklebur = assay: Test B pre/postemergence cocklebur; type: in vivo, Xanthium strumarium
Method in brief: as §1

corn = assay: Test B pre/postemergence corn; type: in vivo, Zea mays
Method in brief: as §1

crabgrass = assay: Test B pre/postemergence crabgrass; type: in vivo, Digitaria sanguinalis
Method in brief: as §1

giant foxtail = assay: Test B pre/postemergence giant foxtail; type: in vivo, Setaria faberii
Method in brief: as §1

morningglory = assay: Test B pre/postemergence morningglory; type: in vivo, Ipomoea hederacea
Method in brief: as §1

pigweed = assay: Test B pre/postemergence pigweed; type: in vivo, Amaranthus retroflexus
Method in brief: as §1

rape = assay: Test B pre/postemergence rape; type: in vivo, Brassica napus
Method in brief: as §1

sugar beet = assay: Test B pre/postemergence sugar beet; type: in vivo, Beta vulgaris
Method in brief: as §1

velvetleaf = assay: Test B pre/postemergence velvetleaf; type: in vivo, Abutilon theophrasti
Method in brief: as §1

wild oat = assay: Test B pre/postemergence wild oat; type: in vivo, Avena fatua
Method in brief: as §1

rice = assay: Test B flood test rice; type: in vivo, Oryza sativa; conditions: for Rice plant response rating (0 to 10 scale, 0 is no effect, 10 is complete control): Rate 125 g/ha, under heading Pre-emergence, flood test species, visual evaluation after twelve to sixteen days
Method in brief: (§2)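 Each value is a visual injury score relative to controls, with 10 meaning complete control and 0 no effect. Evaluation took place twelve to sixteen days after the 2-leaf-stage plants were treated and kept in the greenhouse.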

smallflower flatsedge = assay: Test B flood test smallflower flatsedge; type: in vivo, Cyperus difformis; conditions: for S. Flatsedge plant response rating (0 to 10 scale, 0 is no effect, 10 is complete control): Rate 125 g/ha, under heading Pre-emergence, flood test species, visual evaluation after twelve to sixteen days
Method in brief: as §2

bamyardgrass = assay: Test B flood test barnyardgrass; type: in vivo, Echinochloa crus-galli; conditions: for Barnyardgrass plant response rating (0 to 10 scale, 0 is no effect, 10 is complete control): Rate 125 g/ha, under heading Pre-emergence, flood test species, visual evaluation after twelve to sixteen days
Method in brief: as §2

[1] = Postemergence, Rate 500 g/ha, scale of 0 to 10 where 0 is no effect and 10 is complete control
[2] = Postemergence, Rate 1000 g/ha, scale 0 to 10 (0 no effect, 10 complete control)
[3] = Preemergence, Rate 125 g/ha, scale of 0 to 10 where 0 is no effect and 10 is complete control
[4] = Preemergence, Rate 500 g/ha, scale of 0 to 10 where 0 is no effect and 10 is complete control
[5] = Rate 1000 g/ha, Preemergence, scale 0 to 10 (0 no effect, 10 complete control)
[6] = Postemergence, Rate 125 g/ha, scale of 0 to 10 where 0 is no effect and 10 is complete control
[7] = Postemergence, Rate 250 g/ha, scale of 0 to 10, 0 is no effect, 10 is complete control
[8] = Pre-emergence, Rate 1000 g/ha, scale 0 to 10 (0 no effect, 10 complete control)
[9] = Rate 250 g/ha, Pre-emergence (flood test species), scale 0 to 10, 0 is no effect, 10 is complete control
[10] = Rate 500 g/ha, Pre-emergence section of Table B, 0 to 10 scale (0 no effect, 10 complete control)

CCOP(=O)(Cn1c(=O)on(C(=O)N(c2ccc(F)cc2)C(C)C)c1=O)OCC [Compound 587]
6: Plant response rating, Blackgrass (blackgrass; [1]) | Blackgrass plant response rating (0 to 10 scale) (blackgrass; Preemergence, Rate 250 g/ha) | Crabgrass plant response rating (crabgrass; [3]) | Morningglory plant response rating (morningglory; [7])
2: Bedstraw plant response rating (bedstraw; [4]) | Plant response rating, Crabgrass (crabgrass; [1]) | Plant response rating, Giant foxtail (giant foxtail; [1]) | Redroot pigweed plant response rating (pigweed; [4]) | Plant response rating, Rape (rape; [5]) | Velvetleaf plant response rating (velvetleaf; [2]) | Velvetleaf plant response rating (velvetleaf; [4]) | Wild oats plant response rating (wild oat; [3])
9: Crabgrass plant response rating (crabgrass; [4]) | Giant foxtail plant response rating (giant foxtail; [4]) | Morningglory plant response rating (morningglory; [2]) | Wild oats plant response rating (wild oat; [4])
3: Plant response rating, Bedstraw (bedstraw; [1]) | Plant response rating, Bedstraw (bedstraw; [5]) | Plant response rating, Blackgrass (blackgrass; [6]) | Blackgrass plant response rating (blackgrass; [7]) | Blackgrass plant response rating (blackgrass; [3]) | Crabgrass plant response rating (crabgrass; [2]) | Plant response rating, Morningglory (morningglory; [5]) | Plant response rating, Redroot pigweed (pigweed; [5]) | Plant response rating, Sugarbeets (sugar beet; [5])
7: Bedstraw plant response rating (bedstraw; [2]) | B. signalgrass plant response rating (surinam grass; [4]) | Plant response rating, Morningglory (morningglory; [1])
5: B. signalgrass plant response rating (surinam grass; [2]) | B. signalgrass plant response rating (0 to 10 scale, 0 is no effect, 10 is complete control) (surinam grass; Preemergence, Rate 250 g/ha)
10: Plant response rating, Blackgrass (blackgrass; [5]) | Plant response rating, B. signalgrass (surinam grass; [5]) | Plant response rating, Crabgrass (crabgrass; [5]) | Plant response rating, Giant foxtail (giant foxtail; [5]) | Plant response rating, Wild oats (wild oat; [5])
8: Blackgrass plant response rating (blackgrass; [4]) | Giant foxtail plant response rating (giant foxtail; [3])
4: Plant response rating, Corn (corn; [5]) | Giant foxtail plant response rating (giant foxtail; [2]) | Plant response rating, Morningglory (morningglory; [6]) | Plant response rating, Velvetleaf (velvetleaf; [5])
0: Bedstraw plant response rating (bedstraw; [3]) | Plant response rating, B. signalgrass (surinam grass; [6]) | B. signalgrass plant response rating (surinam grass; [7]) | Plant response rating, B. signalgrass (surinam grass; [1]) | B. signalgrass plant response rating (surinam grass; [3]) | Plant response rating, Cocklebur (cocklebur; [6]) | Cocklebur plant response rating (cocklebur; [7]) | Plant response rating, Cocklebur (cocklebur; [1]) | Cocklebur plant response rating (cocklebur; [2]) | Cocklebur plant response rating (cocklebur; [3]) | Cocklebur plant response rating (0 to 10 scale) (cocklebur; Preemergence, Rate 250 g/ha) | Cocklebur plant response rating (cocklebur; [4]) | Plant response rating, Cocklebur (cocklebur; [5]) | Plant response rating, Corn (corn; [6]) | Corn plant response rating (corn; [7]) | Plant response rating, Corn (corn; [1]) | Corn plant response rating (corn; [2]) | Corn plant response rating (corn; [3]) | Corn plant response rating (0 to 10 scale) (corn; Preemergence, Rate 250 g/ha) | Corn plant response rating (corn; [4]) | Plant response rating, Crabgrass (crabgrass; [6]) | Plant response rating, Giant foxtail (giant foxtail; [6]) | Giant foxtail plant response rating (giant foxtail; [7]) | Morningglory plant response rating (morningglory; [3]) | Morningglory plant response rating (morningglory; [4]) | Plant response rating, Redroot pigweed (pigweed; [6]) | Redroot pigweed plant response rating (pigweed; [7]) | Plant response rating, Redroot pigweed (pigweed; [1]) | Redroot pigweed plant response rating (pigweed; [2]) | Redroot pigweed plant response rating (pigweed; [3]) | Plant response rating, Rape (rape; [6]) | Rape plant response rating (rape; [7]) | Plant response rating, Rape (rape; [1]) | Rape plant response rating (rape; [2]) | Rape plant response rating (rape; [3]) | Plant response rating, Sugarbeets (sugar beet; [6]) | Sugarbeets plant response rating (sugar beet; [7]) | Plant response rating, Sugarbeets (sugar beet; [1]) | Sugarbeets plant response rating (sugar beet; [2]) | Sugarbeets plant response rating (sugar beet; [3]) | Sugarbeets plant response rating (sugar beet; [4]) | Plant response rating, Velvetleaf (velvetleaf; [6]) | Velvetleaf plant response rating (velvetleaf; [7]) | Plant response rating, Velvetleaf (velvetleaf; [1]) | Velvetleaf plant response rating (velvetleaf; [3]) | Plant response rating, Wild oats (wild oat; [6]) | Wild oats plant response rating (wild oat; [7]) | Plant response rating, Wild oats (wild oat; [1]) | Wild oats plant response rating (wild oat; [2]) | Rice plant response rating (rice; [8]) | Rice plant response rating (0 to 10 scale, 0 is no effect, 10 is complete control) (rice) | Rice plant response rating (rice; [9]) | Rice plant response rating (rice; [10]) | S. Flatsedge plant response rating (smallflower flatsedge; [8]) | S. Flatsedge plant response rating (0 to 10 scale, 0 is no effect, 10 is complete control) (smallflower flatsedge) | S. Flatsedge plant response rating (smallflower flatsedge; [9]) | S. Flatsedge plant response rating (smallflower flatsedge; [10]) | Barnyardgrass plant response rating (bamyardgrass; [8]) | Barnyardgrass plant response rating (0 to 10 scale, 0 is no effect, 10 is complete control) (bamyardgrass) | Barnyardgrass plant response rating (bamyardgrass; [9]) | Barnyardgrass plant response rating (bamyardgrass; [10])
1: Rape plant response rating (rape; [4])

C=CCn1c(=O)on(C(=O)N(c2c(C)cccc2C)C(C)COC)c1=O (stereo not drawn) [Compound 600]
1: Plant response rating, Crabgrass (crabgrass; [6])
0: Plant response rating, Bedstraw (bedstraw; [1]) | Bedstraw plant response rating (bedstraw; [2]) | Bedstraw plant response rating (0 to 10 scale) (bedstraw; Preemergence, Rate 250 g/ha) | Bedstraw plant response rating (bedstraw; [4]) | Plant response rating, Bedstraw (bedstraw; [5]) | Plant response rating, Blackgrass (blackgrass; [6]) | Blackgrass plant response rating (blackgrass; [7]) | Plant response rating, Blackgrass (blackgrass; [1]) | Blackgrass plant response rating (blackgrass; [2]) | Blackgrass plant response rating (blackgrass; [3]) | Blackgrass plant response rating (0 to 10 scale) (blackgrass; Preemergence, Rate 250 g/ha) | Blackgrass plant response rating (blackgrass; [4]) | Plant response rating, Blackgrass (blackgrass; [5]) | Plant response rating, B. signalgrass (surinam grass; [6]) | B. signalgrass plant response rating (surinam grass; [7]) | Plant response rating, B. signalgrass (surinam grass; [1]) | B. signalgrass plant response rating (surinam grass; [2]) | B. signalgrass plant response rating (surinam grass; [3]) | B. signalgrass plant response rating (0 to 10 scale, 0 is no effect, 10 is complete control) (surinam grass; Preemergence, Rate 250 g/ha) | B. signalgrass plant response rating (surinam grass; [4]) | Plant response rating, B. signalgrass (surinam grass; [5]) | Plant response rating, Cocklebur (cocklebur; [6]) | Cocklebur plant response rating (cocklebur; [7]) | Plant response rating, Cocklebur (cocklebur; [1]) | Cocklebur plant response rating (cocklebur; [2]) | Cocklebur plant response rating (cocklebur; [3]) | Cocklebur plant response rating (0 to 10 scale) (cocklebur; Preemergence, Rate 250 g/ha) | Plant response rating, Cocklebur (cocklebur; [4]) | Plant response rating, Cocklebur (cocklebur; [5]) | Plant response rating, Corn (corn; [6]) | Corn plant response rating (corn; [7]) | Plant response rating, Corn (corn; [1]) | Corn plant response rating (corn; [2]) | Corn plant response rating (corn; [3]) | Corn plant response rating (0 to 10 scale) (corn; Preemergence, Rate 250 g/ha) | Plant response rating, Corn (corn; [4]) | Plant response rating, Corn (corn; [5]) | Crabgrass plant response rating (crabgrass; [3]) | Plant response rating, Crabgrass (crabgrass; [4]) | Plant response rating, Crabgrass (crabgrass; [5]) | Plant response rating, Giant foxtail (giant foxtail; [6]) | Giant foxtail plant response rating (giant foxtail; [7]) | Giant foxtail plant response rating (giant foxtail; [3]) | Plant response rating, Giant foxtail (giant foxtail; [4]) | Plant response rating, Giant foxtail (giant foxtail; [5]) | Plant response rating, Morningglory (morningglory; [6]) | Morningglory plant response rating (morningglory; [7]) | Plant response rating, Morningglory (morningglory; [1]) | Morningglory plant response rating (morningglory; [2]) | Morningglory plant response rating (morningglory; [3]) | Plant response rating, Morningglory (morningglory; [4]) | Plant response rating, Morningglory (morningglory; [5]) | Plant response rating, Redroot pigweed (pigweed; [6]) | Redroot pigweed plant response rating (pigweed; [7]) | Plant response rating, Redroot pigweed (pigweed; [1]) | Redroot pigweed plant response rating (pigweed; [2]) | Redroot pigweed plant response rating (pigweed; [3]) | Plant response rating, Redroot pigweed (pigweed; [4]) | Plant response rating, Redroot pigweed (pigweed; [5]) | Plant response rating, Rape (rape; [6]) | Rape plant response rating (rape; [7]) | Plant response rating, Rape (rape; [1]) | Rape plant response rating (rape; [2]) | Rape plant response rating (rape; [3]) | Plant response rating, Rape (rape; [4]) | Plant response rating, Rape (rape; [5]) | Plant response rating, Sugarbeets (sugar beet; [6]) | Sugarbeets plant response rating (sugar beet; [7]) | Plant response rating, Sugarbeets (sugar beet; [1]) | Sugarbeets plant response rating (sugar beet; [2]) | Sugarbeets plant response rating (sugar beet; [3]) | Plant response rating, Sugarbeets (sugar beet; [4]) | Plant response rating, Sugarbeets (sugar beet; [5]) | Plant response rating, Velvetleaf (velvetleaf; [6]) | Velvetleaf plant response rating (velvetleaf; [7]) | Plant response rating, Velvetleaf (velvetleaf; [1]) | Velvetleaf plant response rating (velvetleaf; [2]) | Velvetleaf plant response rating (velvetleaf; [3]) | Plant response rating, Velvetleaf (velvetleaf; [4]) | Plant response rating, Velvetleaf (velvetleaf; [5]) | Plant response rating, Wild oats (wild oat; [6]) | Wild oats plant response rating (wild oat; [7]) | Plant response rating, Wild oats (wild oat; [1]) | Wild oats plant response rating (wild oat; [2]) | Wild oats plant response rating (wild oat; [3]) | Plant response rating, Wild oats (wild oat; [4]) | Plant response rating, Wild oats (wild oat; [5]) | Rice plant response rating (rice; [8]) | Rice plant response rating (0 to 10 scale, 0 is no effect, 10 is complete control) (rice) | Rice plant response rating (rice; [9]) | Rice plant response rating (rice; [10]) | S. Flatsedge plant response rating (smallflower flatsedge; [8]) | S. Flatsedge plant response rating (0 to 10 scale, 0 is no effect, 10 is complete control) (smallflower flatsedge) | S. Flatsedge plant response rating (smallflower flatsedge; [9]) | S. Flatsedge plant response rating (smallflower flatsedge; [10]) | Barnyardgrass plant response rating (bamyardgrass; [8]) | Barnyardgrass plant response rating (0 to 10 scale, 0 is no effect, 10 is complete control) (bamyardgrass) | Barnyardgrass plant response rating (bamyardgrass; [9]) | Barnyardgrass plant response rating (bamyardgrass; [10])
3: Plant response rating, Crabgrass (crabgrass; [1]) | Crabgrass plant response rating (crabgrass; [2]) | Plant response rating, Giant foxtail (giant foxtail; [1]) | Giant foxtail plant response rating (giant foxtail; [2])
